For one assay, the target named is T1, KIBRA-PKCι/λ interaction (Homo sapiens, UniProt P41743).
T1 construct: expressed in transfected cells; host or cells: HEK293T
T1 sequence (P41743 10-596): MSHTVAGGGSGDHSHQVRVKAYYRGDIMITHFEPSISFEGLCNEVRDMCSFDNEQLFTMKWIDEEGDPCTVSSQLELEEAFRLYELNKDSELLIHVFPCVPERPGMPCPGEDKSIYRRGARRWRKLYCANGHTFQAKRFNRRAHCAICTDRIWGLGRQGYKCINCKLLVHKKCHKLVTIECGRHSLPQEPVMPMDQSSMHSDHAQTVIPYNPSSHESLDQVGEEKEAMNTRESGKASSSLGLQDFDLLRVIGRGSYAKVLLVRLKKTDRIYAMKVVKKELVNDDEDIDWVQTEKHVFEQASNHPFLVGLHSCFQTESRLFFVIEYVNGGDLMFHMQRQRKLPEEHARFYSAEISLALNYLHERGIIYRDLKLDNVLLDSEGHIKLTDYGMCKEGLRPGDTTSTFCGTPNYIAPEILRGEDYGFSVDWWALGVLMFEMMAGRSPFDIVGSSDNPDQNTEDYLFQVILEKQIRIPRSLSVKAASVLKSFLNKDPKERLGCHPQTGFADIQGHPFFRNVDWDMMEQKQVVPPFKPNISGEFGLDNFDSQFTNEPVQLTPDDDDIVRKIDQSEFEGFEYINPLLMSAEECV
Kind of assay: BiFC assay of KIBRA-PKCι/λ interaction in HEK293T cells. It is filed as cell-based. The conditions noted are these: 10 μM. The protocol: (§1) KIBRA-PKMζ BiFC was performed as previously described (28), using pVen1-FLAG-KIBRA and pVen2-HA-PKMζ, in which PKMζ was cloned between EcoR1 and BamH1 sites. The constructs pVen1 and pVen2 encode the N-terminus (amino acids 1-154) and C-terminus (amino acids 155-238) of the Venus protein, respectively, and the Venus fragments were on the N-terminal of the fusion proteins. pVen2-HA-PKMζ[PKCι/λ-P291Q;F297S] was generated by site-directed mutagenesis using forward-cctggagAagcAAatceggatcccccggtCcctgtccgte and reverse-gacggacaggGaccgggggatccggatTTgctTctccagg primers and the QuickChange II XL Site-Directed Mutagenesis Kit (Agilent Technologies), following manufacturer's instructions. Additional pVen2-HA-PKC isoforms and pVen2-HA-CaMKIIα in the pVen2-HA vector were generated by cloning the N-terminus of the coding sequence of each kinase (table S1) to obtain an in-frame fusion at the C-terminus of the pVen2-HA. Human versions of KIBRA and kinases were used, and all PCR amplified sequences and constructs were verified by DNA sequencing.
(§2) HEK293T cells were cultured in Dulbecco's Modified Eagle's Medium supplemented with 10% heat-inactivated fetal bovine serum, 100 U/ml penicillin, […] streptomycin, 2 mM glutamine, and 10 mM HEPES in a T75 tissue culture flask with canted neck and ventilated cap. Twenty-four hours prior to transfection, 1×10^5 HEK293T cells in 1 ml of media were plated on poly-D-lysine-treated coverslips in 24-well plates. One hour prior to transfection, 0.5 ml of the media was removed from each well, and ζ-stat or K-ZAP was added to the media that had been removed. The remaining media in each well was then discarded and substituted with the 0.5 ml pre-conditioned media containing ζ-stat or K-ZAP at designated concentrations. For transfection a total of 50 ng of DNA was delivered to each well using Lipofectamine 3000 (Invitrogen) and OptiMEM 1× reduced serum medium (Invitrogen) at a plasmid-to-plasmid ratio of 1:1. The amount of transfected DNA was optimized to produce relatively low concentrations of proteins during overexpression. […]

The target of another assay is T2, KIBRA-PKMζ interaction (Homo sapiens, UniProt Q05513).
T2 construct: expressed in transfected cells; host or cells: HEK293T
T2 sequence (Q05513 1-409 isoform Q05513-2): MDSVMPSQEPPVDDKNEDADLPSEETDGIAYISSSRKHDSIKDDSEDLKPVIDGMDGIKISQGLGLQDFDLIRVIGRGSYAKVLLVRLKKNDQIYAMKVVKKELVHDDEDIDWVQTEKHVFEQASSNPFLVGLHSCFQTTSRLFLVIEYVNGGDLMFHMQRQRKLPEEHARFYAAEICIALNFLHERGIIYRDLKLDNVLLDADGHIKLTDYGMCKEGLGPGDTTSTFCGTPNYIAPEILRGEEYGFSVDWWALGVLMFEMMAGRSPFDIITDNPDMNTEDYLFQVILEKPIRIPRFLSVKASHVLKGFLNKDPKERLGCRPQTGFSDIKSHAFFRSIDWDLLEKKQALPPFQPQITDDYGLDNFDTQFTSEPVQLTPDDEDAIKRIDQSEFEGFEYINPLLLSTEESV
The assay can be described thus: BiFC (split-Venus) assay of KIBRA-PKMζ interaction in transfected HEK293T cells. It is filed as cell-based. The note with it: for effect on KIBRA-PKMζ interaction/dimerization (BiFC): 10 μM. The protocol:
as §1, §2

Entries after “also recorded” stand apart in the source; their conditions may differ. Where no end group is shown, it is not given here. The star is where a group is joined. Myristoyl = CCCCCCCCCCCCCC(=O)*

Consider “myr-N-FVRNSLERRSVRMKRPS-C (Myristoyl-FVRNSLERRSVRMKRPS) [K-ZAP]”, for which the “effect on KIBRA-PKCι/λ interaction (BiFC)” value with KIBRA-PKCι/λ interaction is reported as “not measurably affected”. In addition, in the assay with KIBRA-PKMζ interaction, the “effect on KIBRA-PKMζ interaction/dimerization (BiFC)” value was “inhibits PKMz-KIBRA dimerization”.

In the case of `O=S(=O)(O)c1cc(O)c2c(S(=O)(=O)O)cc(S(=O)(=O)O)cc2c1` [ζ-stat, 1-naphthol-3,6,8-trisulphonic acid], the “effect on KIBRA-PKCι/λ interaction (BiFC)” value was “no measurable effect” on KIBRA-PKCι/λ interaction (listed as C-stat) and “has no effects” on KIBRA-PKCι/λ interaction (listed as z-stat). Also, at KIBRA-PKMζ interaction (listed as z-stat), the “effect on KIBRA-PKMζ interaction/dimerization (BiFC)” value is given as “inhibits KIBRA interaction with PKMz; also recorded: decreases BIFC”. Also, on KIBRA-PKMζ interaction (dose-response curve, n's=4, read-out: IC50 for inhibition of KIBRA-PKMζ interaction (BiFC)), the IC50 is around 1000 nM.

By IC50 is commonly meant the midpoint of a concentration-inhibition curve.
